Test results from ChEMBL document CHEMBL5046301, “pH-Responsive Antimicrobial Peptide with Selective Killing Activity for Bacterial Abscess Therapy” (J Med Chem, 2022).
Active and inactive are the calls of the source. The calls are words filed in the database; no cut-off is given here.

Key:
Pseudomonas aeruginosa [1] = assay: Antimicrobial activity against Pseudomonas aeruginosa ATCC 27853 assessed as reduction in bacterial growth at pH 6.5 in presence of FeCl3; type: functional, organism-based
Staphylococcus aureus [2] = assay: Antibacterial activity against Staphylococcus aureus ATCC 29213 assessed as inhibition of bacterial growth at pH 6.5 incubated for 24 hrs by NCCLS protocol based method; type: functional
Mus musculus [3] = assay: Antiinflammatory activity in ICR cutaneous abscess mouse model assessed as reduction in IL-1alpha expression in serum at 5 mg/kg,ip administered twice a day measured after 72 hrs by ELISA (reference value: 9.9 +/ 0.42 10^1pg/ml); type: functional
Pseudomonas aeruginosa [4] = assay: Antimicrobial activity against Pseudomonas aeruginosa ATCC 27853 assessed as reduction in bacterial growth at pH 6.5 in presence of NaCl; type: functional
Mus musculus [5] = assay: Antiinflammatory activity in ICR cutaneous abscess mouse model assessed as reduction in IL-1beta expression in serum at 5 mg/kg,ip administered twice a day measured after 72 hrs by ELISA (reference value: 9.9 +/ 0.47 10^1pg/ml); type: functional
[6] = Toxicity in ICR cutaneous abscess mouse model assessed as reduction in epidermal cell apoptosis at 10 mg/kg,sc measured after 24 hrs by TUNEL assay; type: organism-based; conditions: in vivo
[7] = Hemolytic activity against human RBC assessed as hemoglobin release at pH 6.5 incubated for 1 hrs; type: toxicity, cell-based; conditions: erythrocyte, pH 6.5, 1 h
Staphylococcus aureus [8] = assay: Antibacterial activity against Staphylococcus aureus ATCC 25923 assessed as inhibition of bacterial growth at pH 6.5 incubated for 24 hrs by NCCLS protocol based method; type: functional
[9] = tested on: Staphylococcus epidermidis; assay: Antibacterial activity against Staphylococcus epidermidis ATCC 12228 assessed as inhibition of bacterial growth at pH 7.4 incubated for 24 hrs by NCCLS protocol based method; type: functional
Pseudomonas aeruginosa [10] = assay: Antimicrobial activity against Pseudomonas aeruginosa ATCC 27853 assessed as reduction in bacterial growth at pH 6.5 in presence of CaCl2; type: functional, organism-based
Pseudomonas aeruginosa [11] = assay: Antibacterial activity against Pseudomonas aeruginosa ATCC 27853 assessed as inhibition of bacterial growth at pH 7.4 incubated for 24 hrs by NCCLS protocol based method; type: functional
Staphylococcus aureus [12] = assay: Antibacterial activity against methicillin-resistant Staphylococcus aureus ATCC 43300 assessed as inhibition of bacterial growth at pH 6.5 incubated for 24 hrs by NCCLS protocol based method; type: functional
Pseudomonas aeruginosa [13] = assay: Antipseudomonal activity against Pseudomonas aeruginosa ATCC 27853 infected in ICR cutaneous abscess mouse model assessed as fold reduction in colony forming unit at 5 mg/kg,ip administered twice a day measured after 72 hrs relative to control; type: functional
Pseudomonas aeruginosa [14] = assay: Induction of morphological changes in Pseudomonas aeruginosa ATCC 27853 assessed as plasma membrane collapse at 2 uM at pH 7.4 incubated for 1 hr by TEM analysis; type: functional, organism-based
[15] = tested on: Staphylococcus epidermidis; assay: Antibacterial activity against Staphylococcus epidermidis ATCC 12228 assessed as inhibition of bacterial growth at pH 6.5 incubated for 24 hrs by NCCLS protocol based method; type: functional
Staphylococcus aureus [16] = assay: Antibacterial activity against Staphylococcus aureus ATCC 25923 assessed as inhibition of bacterial growth at pH 7.4 incubated for 24 hrs by NCCLS protocol based method; type: functional
Pseudomonas aeruginosa [17] = assay: Antibacterial activity against Pseudomonas aeruginosa ATCC 27853 assessed as inhibition of bacterial growth at pH 6.5 incubated for 24 hrs by NCCLS protocol based method; type: functional
Cell membrane [18] = assay: Induction of outer membrane permeabilization in Pseudomonas aeruginosa ATCC 27853 assessed as increase in NPN uptake by NPN-dye based fluorescence analysis; type: subcellular; conditions: dose 1-64 µM
Pseudomonas aeruginosa [19] = assay: Induction of morphological changes in Pseudomonas aeruginosa ATCC 27853 assessed as plasma membrane collapse at 2 uM at pH 6.5 incubated for 1 hr by TEM analysis; type: functional, organism-based
Pseudomonas aeruginosa [20] = assay: Induction of morphological changes in Pseudomonas aeruginosa ATCC 27853 assessed as change in intracellular contents at 2 uM at pH 6.5 incubated for 1 hr by TEM analysis; type: functional, organism-based
Mus musculus [21] = assay: Antiinflammatory activity in ICR cutaneous abscess mouse model assessed as reduction in IL-2 expression in serum at 5 mg/kg,ip administered twice a day measured after 72 hrs by ELISA (reference value: 1.53 +/ 0.06 10^3pg/ml); type: functional
Escherichia coli = assay: Antibacterial activity against Escherichia coli ATCC 25922 assessed as inhibition of bacterial growth at pH 7.4 incubated for 24 hrs by NCCLS protocol based method; type: functional
Staphylococcus aureus [22] = assay: Antibacterial activity against Staphylococcus aureus ATCC 29213 assessed as inhibition of bacterial growth at pH 7.4 incubated for 24 hrs by NCCLS protocol based method; type: functional
Lipopolysaccharide (LPS) = assay: Displacement of BODIPY-TR-cadaverin from Pseudomonas aeruginosa ATCC 27316 Lipopolysaccharide at 1 to 64 uM at pH 6.5 incubated for 1 hr by fluorescence based analysis relative to control; conditions: dose 1-64 µM
Pseudomonas aeruginosa [23] = assay: Antimicrobial activity against Pseudomonas aeruginosa ATCC 27853 assessed as reduction in bacterial growth at pH 6.5 in presence of NH4Cl; type: functional, organism-based
Pseudomonas aeruginosa [24] = assay: Antimicrobial activity against Pseudomonas aeruginosa ATCC 27853 infected in ICR cutaneous abscess mouse model assessed as complete epidermis structure at 5 mg/kg,ip administered twice a day measured after 3 days by hematoxylin and eosin staining based analysis; type: functional, organism-based; conditions: time 3.0 day
Cell membrane [25] = assay: Induction of cytoplasmic membrane depolarization in Pseudomonas aeruginosa ATCC 27853 assessed as increase in fluorescence intensity at acidic and alkaline pH by DiSC3-5 dye based fluorescence assay; type: subcellular; conditions: TDE = time-dependent effect
Salmonella typhimurium = assay: Antibacterial activity against Salmonella typhimurium ATCC 14028 assessed as inhibition of bacterial growth at pH 7.4 incubated for 24 hrs by NCCLS protocol based method; type: functional, Salmonella enterica subsp. enterica serovar Typhimurium; conditions: Salmonella enterica
[26] = Hemolytic activity in human RBC assessed as hemoglobin release at pH 7.4 incubated for 1 hr; type: toxicity, cell-based; conditions: erythrocyte, pH 7.4, 1 h
Staphylococcus aureus [27] = assay: Antibacterial activity against methicillin-resistant Staphylococcus aureus ATCC 43300 assessed as inhibition of bacterial growth at pH 7.4 incubated for 24 hrs by NCCLS protocol based method; type: functional
Pseudomonas aeruginosa [28] = assay: Antipseudomonal activity against Pseudomonas aeruginosa ATCC 27853 infected in ICR cutaneous abscess mouse model assessed as fold reduction in lesion area at 5 mg/kg,ip administered twice a day measured after 72 hrs relative to control; type: functional
Pseudomonas aeruginosa [29] = assay: Induction of morphological changes in Pseudomonas aeruginosa ATCC 27853 assessed as disruption in cell membrane at 2 uM at pH 7.4 incubated for 1 hr by SEM analysis; type: functional, organism-based
[30] = Cytotoxicity against mouse RAW264.7 cells assessed as inhibition of cell growth at pH 6.5 measured after 24 hrs by MTT assay; type: toxicity, cell-based
Pseudomonas aeruginosa [31] = assay: Induction of morphological changes in Pseudomonas aeruginosa ATCC 27853 assessed as change in intracellular contents at 2 uM at pH 7.4 incubated for 1 hr by TEM analysis; type: functional, organism-based
[32] = Cytotoxicity against mouse RAW264.7 cells assessed as inhibition of cell growth at pH 7.4 measured after 24 hrs by MTT assay; type: toxicity, cell-based

With H-FLEHLIPHVIHGLVHAIHH-NH2 the Activity (Pseudomonas aeruginosa [1]) was “Active”, the MIC (Staphylococcus aureus [2]) was over 64 µM and the Activity (Mus musculus [3]) was 6.67 10^1pg/ml. The MIC (Pseudomonas aeruginosa [4]) was 2 µM, the Activity (Mus musculus [5]) was 6.93 10^1pg/ml and the Activity [6] was “Non-Toxic”. It also gave an MHC10 [7] of over 128 µM, an MIC (Staphylococcus aureus [8]) of over 64 µM and an MIC [9] of over 64 µM. The Activity (Pseudomonas aeruginosa [10]) was “Active”, the MIC (Pseudomonas aeruginosa [11]) was over 64 µM and the MIC (Staphylococcus aureus [12]) was 64 µM. For the same substance, the “fold change (FC)” value (Pseudomonas aeruginosa [13]) was 10, the Activity (Pseudomonas aeruginosa [14]) was “inactive” and the MIC [15] was over 64 µM. The MIC (Staphylococcus aureus [16]) was over 64 µM, the MIC (Pseudomonas aeruginosa [17]) was 2 µM and the Activity (Cell membrane [18]) was “Dose-Dependent Effect”. The Activity (Pseudomonas aeruginosa [19]) was “Active”, the Activity (Pseudomonas aeruginosa [20]) was “Active” and the Activity (Mus musculus [21]) was 1.15 10^3pg/ml. The MIC (Escherichia coli) was over 64 µM, the MIC (Staphylococcus aureus [22]) was over 64 µM and the Activity (Lipopolysaccharide (LPS)) was 100%. For the same substance, the Activity (Pseudomonas aeruginosa [23]) was “Active”, the Activity (Pseudomonas aeruginosa [24]) was “Active” and the Activity (Cell membrane [25]) was “Tde”. It also gave an MIC (Salmonella typhimurium) of over 64 µM, an MHC10 [26] of over 128 µM and an MIC (Staphylococcus aureus [27]) of over 64 µM. The “fold change (FC)” value (Pseudomonas aeruginosa [28]) was 10, the Activity (Pseudomonas aeruginosa [29]) was “inactive” and the IC50 at 24 h [30] was over 128 µM. For the same substance, the Activity (Pseudomonas aeruginosa [31]) was “inactive” and the IC50 at 24 h [32] was over 128 µM.
